Residues, ends and D or L forms follow the SMILES beside them.
Experiments:
K^b = details: ref [28]; cited from earlier work
[1] = system: CD8-negative m33 Y48βA T cells; assay: T cell stimulation/antagonism, secreted IL-2; assay type: cell-based, mouse; details: 24 h
CD8-negative 2C T cells = assay: T cell stimulation/antagonism, secreted IL-2; assay type: cell-based, mouse; details: 24 h
CD8-negative m33 T cells = details: 24 h

SIINFEKL [OVA]
half-life of OVA/K^b (K^b): 23 h

CC(C)C[C@H](NC(=O)[C@H](CC(=O)O)NC(=O)[C@H](Cc1ccccc1)NC(=O)[C@@H]1CCCN1C(=O)[C@H](CCCNC(=N)N)NC(=O)[C@@H]1CCCN1C(=O)[C@H](CO)NC(=O)[C@H](CC(C)C)NC(=O)[C@@H](N)CCC(N)=O)C(=O)O [QL9 F5R] (H-QLSPRPFDL-OH)
IC50 [1]: 4.7 ± 0.4 nM
IC50 (CD8-negative 2C T cells): 0.44 ± 0.27 nM

CC[C@H](C)[C@H](NC(=O)[C@@H](N)CO)C(=O)N[C@@H](Cc1ccc(O)cc1)C(=O)N[C@@H](C)C(=O)N[C@@H](Cc1ccc(O)cc1)C(=O)N[C@@H](Cc1ccc(O)cc1)C(=O)NCC(=O)N[C@@H](CC(C)C)C(=O)O [SIY R4A] (H-SIYAYYGL-OH)
IC50 (CD8-negative m33 T cells): 0.15 nM
